According to US11203770B2, “Methods for producing caprylic acid and/or caprylate” (Cornell University, priority 2016, dated 2021):

What was measured:
[1] = test system: reactor microbiome; test: inhibition of the chain-elongating reactor microbiome in the continuously fed upflow anaerobic filter; assay type: cell-based; conditions: for high residual concentration that inhibits microbial activity: bioreactor broth, mildly acidic pH, n-caprylic acid as undissociated acid
Experimental: Experimental. Continuously fed bioreactor system. An upflow anaerobic filter was used with constant bioreactor broth recycling through an in-line membrane liquid-liquid extraction (i.e. pertraction) system (FIG. 8). The bioreactor was a vertically oriented cylinder, which was made of Plexiglas®, with an inner diameter of 6 cm. The total volume was 0.90 L, but […]1 packing material (Evolution Aqua, Wigan, United Kingdom) was added, resulting in a working volume of 0.70 L. […] A pH probe (Mettler 405-[…], Columbus, Ohio, USA) was mounted at the top of the bioreactor. Automated pH control of the bioreactor broth was maintained with a controller (Eutech Instruments alpha-pH800, Vernon Hills, Ill., USA) and a corresponding acid addition pump ([…] 913, Bradenton, Fla., USA). […] The effluent continuously exited the bioreactor via an overflow line connected to the top of the bioreactor. The exit of the overflow line was submerged within a secondary effluent reservoir. An inverted funnel was used to collect the biogas within the bioreactor and was connected to a flow meter (Ritter MGC-1, Bochum, Germany). In addition, a gas-sample septum and a bubbler were placed in the gas collection system. A sampling port for biomass samples was placed halfway up the vertically oriented bioreactor. Periods for the bioreactor study. This bioreactor was divided into two phases: I) a start-up phase with continuous feeding (with the product extraction system on or off); and II) a high n-caprylate productivity phase (with continuous feeding and the product extraction system on). Each phase was then divided into several distinct operating periods. From period to period, several operating parameters were varied, including the: organic loading rate (OLR); HRT; bioreactor pH; and operation with or without product extraction (Table 1). Each operating period was operated for at least five HRT periods, and average bioreactor loading rates and concentrations were reported. During Period 1 in Phase I (Days 0-15), pre-washed inoculum was added to the upflow anaerobic filter after which a continuous feeding strategy was initiated. […] The bioreactor was re-inoculated on Day 15 of Period 2 in Phase I (Days 15-54) with pre-washed inoculum, and then again on Day 54 of Period 3 of Phase I (Days 54-64) with non-washed inoculum. This last inoculation carried some carboxylates from the inoculation bioreactor. During Period 4 of Phase I (Days 64-80), the product extraction was turned off. […] In addition, we increased the OLR from 1.8 to 3.8 g COD/L-d (Table 2). Day 98 represented the start of Phase II (Period 6; Days 98-128), by switching on the product extraction system. Next, we increased the OLRs in a step-wise fashion during 4 out of the next 5 periods in Phase II. […]

[2] = test system: methanogens; test: toxicity to methanogens in small serum bottles; assay type: cell-based; conditions: concentrations present in the bioreactor
Description: Thus, at a pH of 7.0 we would have anticipated a methanogenic anaerobic digester rather than a chain elongating bioreactor. […] This explains why we can chain elongate at the higher pH levels without adding a methanogenic-inhibiting compound such as bromo-ethanesulfonate (BrES). […] This substantiates the claim that we can operate a chain elongating bioreactor sustainably at a pH level of 7.0.

[3] = cited from earlier work

Compound | residual ethanol concentration at which microbial inhibition was reached ([1]; Period 11, bioreactor broth) [g COD/L] | high residual concentration that inhibits microbial activity [1] [mM] | toxic concentration, times lower than n-caproic acid ([1]; undissociated acids, toxicity to the community) | toxicity of undissociated acid to methanogens [2] | solubility limit of the undissociated acid [3] [mM]
CCO [ethanol] | ~28 | ~300 |  |  | 
CCCCCCCC(=O)O [n-caprylic acid] |  | 0.62 | approximately 10 × | toxic | 
CCCCCC(=O)O [n-caproic acid] |  |  |  |  | 93
